The results in this text go back to PubChem BioAssay (NCI).

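How tested: cells in 96-well plates exposed to compound for 48 hours at five concentrations. At the TGI there is no net growth.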

Holding throughout (experiment): inhibition of tumour cell growth, NCI panel, 48 h
Experiment [1] deals with TK-10 renal.
Experiment [2] has as its system NCI-H522 lung.
Experiment [3] deals with HCT-15 colon.
For experiment [4], the system named is HOP-92 NSCLC.
In experiment [5] the test system is OVCAR-5 ovarian.
For experiment [6], the system named is OVCAR-8 ovarian.
Experiment [7] relates to M14 melanoma.
Experiment [8] deals with SF-295 CNS.
Experiment [9] deals with SW-620 colon.
The test system of experiment [10] is IGROV1 ovarian.
Experiment [11] has as its system OVCAR-3 ovarian.
Experiment [12] has as its system SK-MEL-28 melanoma.

As for `CCC(C#N)N(Cc1cccc(CN(C(C)=O)C(C#N)CC)c1)C(C)=O` (configuration not stated), the TGI in experiment [1], in experiment [2], in [3], in [4], in experiment [5] and in experiment [6] was over 100 µM each time. The TGI in [7], in [8], in experiment [9], in [10] and in experiment [11] was over 100 µM throughout.
For `C=C1C(=O)O[C@H]2C1C[C@@H](O)[C@@]1(C)OC1CC[C@@]1(C)O[C@H]21` (some centres not stated), the TGI in experiment [1] stood at 35.3 µM; in experiment [2], 20 µM; in [3], 37.9 µM; in experiment [12] it was 38.8 µM; in experiment [4], 32.6 µM; in [5], 63.9 µM. Moreover, the TGI was over 100 µM in experiment [6], 31.3 µM in experiment [7], over 100 µM in experiment [8] and 38.5 µM in experiment [9].
With `COC(=O)CSc1[nH]c2nc(C)nc(Nc3ccccc3)c2c1C#N`, the TGI in experiment [1], in [3], in experiment [12], in experiment [4], in [6] and in experiment [7] was over 10 µM each time. For the same compound, the TGI in [8], in experiment [9] and in experiment [10] was over 10 µM each time.
Take `C[Si](C)(C)C#C[I+]c1ccccc1`: the TGI in experiment [1] is over 100 µM; in experiment [2], 23.3 µM; in [3] it was 56.1 µM; in [12], over 100 µM; in [4], over 100 µM; in [5], over 100 µM. In addition, the TGI is 50.1 µM in [6]; 85.9 µM in [7]; over 100 µM in experiment [8]; over 100 µM in experiment [10]; 86.2 µM in experiment [11].
For the compound `CC(=O)OCc1ccc(-c2nc(C#N)c(N)o2)o1`, the TGI in [1], in [2], in experiment [3], in experiment [12], in experiment [4] and in experiment [6] was over 10 µM each time. Besides, the TGI in experiment [7], in experiment [8], in experiment [9] and in experiment [10] was over 10 µM each time.
With `CC(C)(C)[Si](C)(C)OCC1OC(n2ccc(=O)[nH]c2=O)C(O[Si](C)(C)C(C)(C)C)/C1=N/O` (configuration not stated), the TGI in experiment [1] came to 20.9 µM; in experiment [3] it was 12.1 µM; in [12], 9.69 µM; in experiment [4], 8.95 µM; in [5], 18.6 µM; in [6] it was 13.9 µM. For the same compound, the TGI is 12 µM in [7]; over 40.7 µM in experiment [8]; over 37.8 µM in [9]; 15.6 µM in [10]; over 100 µM in experiment [11].
In the case of `COC(=O)c1nc2c(C)c(O)c(O)c([C@H](C)CCC=C(C)C)c2o1`, the TGI in experiment [1] is over 100 µM; in experiment [3], over 100 µM; in experiment [12] it was over 100 µM; in experiment [4], 66.7 µM; in experiment [5], over 100 µM; in [6], over 100 µM. The TGI in experiment [7] is over 100 µM; in [8] it was 47 µM; in [9] it was over 100 µM; in experiment [10], 48.1 µM; in experiment [11], over 100 µM.
`O=[N+]([O-])c1ccccc1S(=O)(=O)N1CCCc2cc(Cl)ccc21`: the TGI in experiment [1], in experiment [3], in [12], in experiment [4], in experiment [5] and in experiment [6] was over 100 µM each time. The TGI in experiment [7], in experiment [8], in experiment [9], in experiment [10] and in experiment [11] was over 100 µM throughout.
For the compound `CCOC(=O)c1cc(-c2ccc(OC)c(OC)c2)cn1C`, the TGI in experiment [1], in experiment [2], in experiment [3], in experiment [12], in [4] and in experiment [5] was over 10 µM in each case. Further, the TGI in experiment [6], in experiment [7], in [8], in experiment [10] and in experiment [11] was over 10 µM throughout.
On to `c1ccc(/C(=N/Nc2cnccn2)c2ncccn2)cc1`, for which the TGI in experiment [2] is 44.7 µM; in experiment [3] it was over 100 µM; in experiment [12] it was over 100 µM; in experiment [4] it was over 100 µM; in experiment [5] it was over 100 µM; in experiment [6], over 100 µM. The TGI in experiment [7], in experiment [8], in experiment [9], in experiment [10] and in [11] was over 100 µM in each case.
Consider `NS(=O)(=O)c1ccc(CNC(=S)NC(=O)Nc2ccc(Cl)c(Cl)c2)cc1`, for which the TGI in [1] was over 100 µM; in experiment [2], 34.2 µM; in experiment [3], 31.8 µM; in experiment [12], 69.8 µM; in experiment [4] it was 52.9 µM; in experiment [5], over 100 µM. For the same compound, the TGI in experiment [6] was 53.4 µM; in [7] it was 35.8 µM; in experiment [8], 33.2 µM; in experiment [9], 44.7 µM; in [10] it was 50.5 µM.
Take `CC1(C)COC(c2cccc(C3=NC(C)(C)CO3)c2)=N1`: the TGI in [1], in [3], in [12], in experiment [4], in [5] and in experiment [6] was over 100 µM throughout. Further, the TGI in experiment [7], in experiment [9] and in [10] was over 100 µM throughout.
With `CCCCN(CCCC)CC(=O)c1ccc2cc(Cl)c3ccccc3c2c1`, the TGI in experiment [1] was over 100 µM; in experiment [2], 47.3 µM; in [3], 53.3 µM; in experiment [4], over 100 µM; in experiment [5] it was over 100 µM; in [6], 51.8 µM. Besides, the TGI in experiment [7] was over 100 µM; in [8] it was over 100 µM; in [9], over 100 µM; in [10], 62 µM; in [11] it was over 100 µM.
